{"source": "EPA's CvTdb concentration-time database", "key": {"[1]": {"test_system": "Rat", "assay": "concentration in plasma after dosing", "conditions": "1 h; dosed: Wyeth-14643; 1.0 mg/kg; oral; Male; Sprague-Dawley"}, "[2]": {"test_system": "Rat", "assay": "concentration in heart after dosing", "conditions": "40 min; dosed: Bis 2-Chloroethoxy Methane; 20 mg/kg; iv; Male; F344"}, "[3]": {"test_system": "Rat", "assay": "concentration in liver after dosing", "conditions": "10 min; dosed: Bis 2-Chloroethoxy Methane; 20 mg/kg; iv; Female; F344"}, "[4]": {"test_system": "Rat", "assay": "concentration in liver after dosing", "conditions": "40 min; dosed: Bis 2-Chloroethoxy Methane; 20 mg/kg; iv; Male; F344"}, "[5]": {"test_system": "Rat", "assay": "concentration in thymus after dosing", "conditions": "4 h; dosed: Bis 2-Chloroethoxy Methane; 20 mg/kg; iv; Female; F344"}, "[6]": {"test_system": "Rat", "assay": "concentration in thymus after dosing", "conditions": "40 min; dosed: Bis 2-Chloroethoxy Methane; 20 mg/kg; iv; Male; F344"}, "[7]": {"test_system": "Rat", "assay": "concentration in heart after dosing", "conditions": "6 h; dosed: Bis 2-Chloroethoxy Methane; 20 mg/kg; iv; Male; F344"}, "[8]": {"test_system": "Rat", "assay": "concentration in thymus after dosing", "conditions": "7 h; dosed: Bis 2-Chloroethoxy Methane; 20 mg/kg; iv; Female; F344"}, "[9]": {"test_system": "Rat", "assay": "concentration in plasma after dosing", "conditions": "5 h; dosed: Bis 2-Chloroethoxy Methane; 20 mg/kg; iv; Male; F344"}, "[10]": {"test_system": "Rat", "assay": "concentration in thymus after dosing", "conditions": "2 h; dosed: Bis 2-Chloroethoxy Methane; 20 mg/kg; iv; Male; F344"}, "[11]": {"test_system": "Rat", "assay": "concentration in liver after dosing", "conditions": "5 h; dosed: Bis 2-Chloroethoxy Methane; 20 mg/kg; iv; Male; F344"}, "[12]": {"test_system": "Rat", "assay": "concentration in plasma after dosing", "conditions": "dosed: Fluorotelomer alcohol 8+2, 12 mg/kg, iv, Male, F344"}, "[13]": {"test_system": "Rat", "assay": "concentration in brain after dosing", "conditions": "3 h; dosed: Fluorotelomer alcohol 8+2; 24 mg/kg; oral; Male; Harlan Sprague Dawley"}, "[14]": {"test_system": "Rat", "assay": "concentration in plasma after dosing", "conditions": "dosed: Fluorotelomer alcohol 8+2, 12 mg/kg, oral, Male, Harlan Sprague Dawley"}, "[15]": {"test_system": "Rat", "assay": "concentration in liver after dosing", "conditions": "6 h; dosed: Fluorotelomer alcohol 8+2; 80 mg/kg; oral; Female; Harlan Sprague Dawley"}, "[16]": {"test_system": "Rat", "assay": "concentration in plasma after dosing", "conditions": "10 min; dosed: Di-n-butyl phthalate; 50 mg/kg; oral; Male; Sprague-Dawley"}, "[17]": {"test_system": "Rat", "assay": "concentration in plasma after dosing", "conditions": "5 h; dosed: Di-n-butyl phthalate; 20 mg/kg; iv; Male; Sprague-Dawley"}, "[18]": {"test_system": "Rat", "assay": "concentration in plasma after dosing", "conditions": "5 min; dosed: Di-n-butyl phthalate; 20 mg/kg; iv; Male; Sprague-Dawley"}, "[19]": {"test_system": "Rat", "assay": "concentration in plasma after dosing", "conditions": "3 h; dosed: Di-n-butyl phthalate; 20 mg/kg; iv; Male; Sprague-Dawley"}, "[20]": {"test_system": "Rat", "assay": "concentration in plasma after dosing", "conditions": "3 h; dosed: Di-n-butyl phthalate; 100 mg/kg; oral; Male; Sprague-Dawley"}, "[21]": {"test_system": "Rat", "assay": "concentration in plasma after dosing", "conditions": "40 min; dosed: Di-n-butyl phthalate; 20 mg/kg; iv; Male; Sprague-Dawley"}, "[22]": {"test_system": "Rat", "assay": "concentration in plasma after dosing", "conditions": "15 h; dosed: Di-n-butyl phthalate; 100 mg/kg; oral; Male; Sprague-Dawley"}, "[23]": {"test_system": "Rat", "assay": "concentration in brain after dosing", "conditions": "864 h; dosed: Perfluorodecanoic acid; 10 mg/kg; oral; Female; Harlan Sprague Dawley"}, "[24]": {"test_system": "Rat", "assay": "concentration in liver after dosing", "conditions": "3360 h; dosed: Perfluorodecanoic acid; 10 mg/kg; oral; Female; Harlan Sprague Dawley"}, "[25]": {"test_system": "Rat", "assay": "concentration in plasma after dosing", "conditions": "dosed: Perfluorodecanoic acid, 2 mg/kg, iv, Male, F344"}, "[26]": {"test_system": "Rat", "assay": "concentration in plasma after dosing", "conditions": "18 h; dosed: Primidone; 80 mg/kg; oral; Male; F344"}, "[27]": {"test_system": "Rat", "assay": "concentration in heart after dosing", "conditions": "2 h; dosed: Thiodiglycolic Acid; 20 mg/kg; iv; Female; Harlan Sprague Dawley"}, "[28]": {"test_system": "Rat", "assay": "concentration in thymus after dosing", "conditions": "6.667 h; dosed: Thiodiglycolic Acid; 20 mg/kg; iv; Female; Harlan Sprague Dawley"}, "[29]": {"test_system": "Rat", "assay": "concentration in heart after dosing", "conditions": "3 h; dosed: Thiodiglycolic Acid; 20 mg/kg; iv; Male; Harlan Sprague Dawley"}, "[30]": {"test_system": "Rat", "assay": "concentration in plasma after dosing", "conditions": "10 min; dosed: Thiodiglycolic Acid; 20 mg/kg; iv; Female; Harlan Sprague Dawley"}, "[31]": {"test_system": "Rat", "assay": "concentration in thymus after dosing", "conditions": "20 min; dosed: Thiodiglycolic Acid; 20 mg/kg; iv; Female; F344"}, "[32]": {"test_system": "Rat", "assay": "concentration in plasma after dosing", "conditions": "3 h; dosed: Thiodiglycolic Acid; 20 mg/kg; iv; Female; Harlan Sprague Dawley"}, "[33]": {"test_system": "Rat", "assay": "concentration in thymus after dosing", "conditions": "10 min; dosed: Thiodiglycolic Acid; 20 mg/kg; iv; Female; Harlan Sprague Dawley"}, "[34]": {"test_system": "Rat", "assay": "concentration in plasma after dosing", "conditions": "3 h; dosed: Thiodiglycolic Acid; 20 mg/kg; iv; Female; Harlan Sprague Dawley", "remark": "listed apart in the source"}, "[35]": {"test_system": "Rat", "assay": "concentration in thymus after dosing", "conditions": "8 h; dosed: Thiodiglycolic Acid; 20 mg/kg; iv; Female; Harlan Sprague Dawley"}, "[36]": {"test_system": "Rat", "assay": "concentration in plasma after dosing", "conditions": "5.333 h; dosed: Thiodiglycolic Acid; 20 mg/kg; iv; Male; Harlan Sprague Dawley"}, "[37]": {"test_system": "Rat", "assay": "concentration in plasma after dosing", "conditions": "40 min; dosed: Thiodiglycolic Acid; 20 mg/kg; iv; Male; Harlan Sprague Dawley"}, "[38]": {"test_system": "Rat", "assay": "concentration in plasma after dosing", "conditions": "dosed: dichloroacetic acid, 100 mg/kg, oral, Male, F344"}, "[39]": {"test_system": "Rat", "assay": "concentration in plasma after dosing", "conditions": "dosed: dichloroacetic acid, 40 mg/kg, oral, Female, Harlan Sprague Dawley"}}}
{"smiles": "Cc1cccc(Nc2cc(Cl)nc(SCC(=O)O)n2)c1C", "values": [{"measurement": "concentration in plasma", "setting": "[1]", "value": 828, "unit": "ng/mL"}]}
{"smiles": "ClCCOCOCCCl", "note": "[Bis 2-Chloroethoxy Methane]", "values": [{"measurement": "concentration in heart", "setting": "[2]", "value": 6920, "unit": "ng/g"}, {"measurement": "concentration in liver", "setting": "[3]", "value": 973, "unit": "ng/g"}, {"measurement": "concentration in liver", "setting": "[4]", "value": 3320, "unit": "ng/g"}, {"measurement": "concentration in thymus", "setting": "[5]", "value": 108, "unit": "ng/g"}, {"measurement": "concentration in thymus", "setting": "[6]", "value": 8210, "unit": "ng/g"}, {"measurement": "concentration in heart", "setting": "[7]", "value": 19.3, "unit": "ng/g"}, {"measurement": "concentration in thymus", "setting": "[8]", "value": 17.7, "unit": "ng/g"}, {"measurement": "concentration in plasma", "setting": "[9]", "value": 31, "unit": "ng/mL"}, {"measurement": "concentration in thymus", "setting": "[10]", "value": 478, "unit": "ng/g"}, {"measurement": "concentration in liver", "setting": "[11]", "value": 42.7, "unit": "ng/g"}]}
{"smiles": "OCCC(F)(F)C(F)(F)C(F)(F)C(F)(F)C(F)(F)C(F)(F)C(F)(F)C(F)(F)F", "note": "[Fluorotelomer alcohol 8+2]", "values": [{"measurement": "concentration in plasma", "setting": "[12]; 0.25 h", "value": 1430, "unit": "ng/mL"}, {"measurement": "concentration in plasma", "setting": "[12]; 24 h", "value": 10.2, "unit": "ng/mL"}, {"measurement": "concentration in brain", "setting": "[13]", "value": 1490, "unit": "ng/g"}, {"measurement": "concentration in plasma", "setting": "[14]; 1 h", "value": 329, "unit": "ng/mL"}, {"measurement": "concentration in plasma", "setting": "[14]; 24 h", "value": 0.982, "unit": "ng/mL"}, {"measurement": "concentration in liver", "setting": "[15]", "value": 2020, "unit": "ng/g"}]}
{"smiles": "CCCCOC(=O)c1ccccc1C(=O)O", "note": "[Mono-n-butyl phthalate]", "values": [{"measurement": "concentration in plasma", "setting": "[16]", "value": 26100, "unit": "ng/mL"}, {"measurement": "concentration in plasma", "setting": "[17]", "value": 1030, "unit": "ng/mL"}, {"measurement": "concentration in plasma", "setting": "[18]", "value": 22800, "unit": "ng/mL"}, {"measurement": "concentration in plasma", "setting": "[19]", "value": 1640, "unit": "ng/mL"}, {"measurement": "concentration in plasma", "setting": "[20]", "value": 1190, "unit": "ng/mL"}, {"measurement": "concentration in plasma", "setting": "[21]", "value": 5350, "unit": "ng/mL"}, {"measurement": "concentration in plasma", "setting": "[22]", "value": 900, "unit": "ng/mL"}]}
{"smiles": "O=C(O)C(F)(F)C(F)(F)C(F)(F)C(F)(F)C(F)(F)C(F)(F)C(F)(F)C(F)(F)C(F)(F)F", "note": "[Perfluorodecanoic acid]", "values": [{"measurement": "concentration in brain", "setting": "[23]", "value": 1010, "unit": "ng/g"}, {"measurement": "concentration in liver", "setting": "[24]", "value": 7670, "unit": "ng/g"}, {"measurement": "concentration in plasma", "setting": "[25]; 1 h", "value": 6890, "unit": "ng/mL"}, {"measurement": "concentration in plasma", "setting": "[25]; 528 h", "value": 4990, "unit": "ng/mL"}, {"measurement": "concentration in plasma", "setting": "[25]; 3360 h", "value": 662, "unit": "ng/mL"}]}
{"smiles": "CCC1(c2ccccc2)C(=O)NC(=O)NC1=O", "note": "[Phenobarbital]", "values": [{"measurement": "concentration in plasma", "setting": "[26]", "value": 3110, "unit": "ng/mL"}]}
{"smiles": "O=C(O)CSCC(=O)O", "note": "[Thiodiglycolic Acid]", "values": [{"measurement": "concentration in heart", "setting": "[27]", "value": 1420, "unit": "ng/g"}, {"measurement": "concentration in thymus", "setting": "[28]", "value": 335, "unit": "ng/g"}, {"measurement": "concentration in heart", "setting": "[29]", "value": 1040, "unit": "ng/g"}, {"measurement": "concentration in plasma", "setting": "[30]", "value": 38100, "unit": "ng/mL"}, {"measurement": "concentration in thymus", "setting": "[31]", "value": 5640, "unit": "ng/g"}, {"measurement": "concentration in plasma", "setting": "[32]", "value": 535, "unit": "ng/mL"}, {"measurement": "concentration in thymus", "setting": "[33]", "value": 10100, "unit": "ng/g"}, {"measurement": "concentration in plasma", "setting": "[34]", "value": 510, "unit": "ng/mL"}, {"measurement": "concentration in thymus", "setting": "[35]", "value": 395, "unit": "ng/g"}, {"measurement": "concentration in plasma", "setting": "[36]", "value": 198, "unit": "ng/mL"}, {"measurement": "concentration in plasma", "setting": "[37]", "value": 3090, "unit": "ng/mL"}]}
{"smiles": "O=C(O)C(Cl)Cl", "note": "[dichloroacetic acid]", "values": [{"measurement": "concentration in plasma", "setting": "[38]; 20 min", "value": 15900, "unit": "ng/mL"}, {"measurement": "concentration in plasma", "setting": "[38]; 8 h", "value": 25000, "unit": "ng/mL"}, {"measurement": "concentration in plasma", "setting": "[39]; 2 min", "value": 704, "unit": "ng/mL"}, {"measurement": "concentration in plasma", "setting": "[39]; 1 h", "value": 7020, "unit": "ng/mL"}]}
